Results from ChEMBL document CHEMBL1142391, “Biologically active aspidofractinine alkaloids from Kopsia singapurensis” (J Nat Prod, 2008).
In brackets after ≈: the same amount, converted by molar mass.

Tests used:
Assay type in all cases: functional, cell-based
[1] = Cytotoxicity against vincristine-resistant human KB/VJ300 cells
[2] = system: KB; experiment: Reversal of multidrug resistance in vincristine-resistant human KB cells in presence of 0.1 uM vincristine
[3] = system: KB; experiment: Reversal of multidrug resistance in vincristine-resistant human KB cells in presence of 0.121 uM vincristine

Compound | IC50 [1] | IC50 [2] | IC50 [3]
CCOC(=O)[C@@H]1[C@@H](O)[C@@]23C=CCN4CC[C@@]5(c6ccccc6N[C@]15CC2)[C@@H]43 [KOPSILOSCINE J] | > 25 µg/mL | 15 µg/mL | –
COC(=O)N1c2c(ccc3c2OCO3)[C@@]23CCN4C[C@@H]5O[C@@H]5[C@]5(CC[C@]12[C@](O)(C(=O)OC)[C@@H]5O)[C@H]43 [KOPSIMALINE A] | > 25 µg/mL | – | 3.9 mM
COC(=O)N1c2c(O)cccc2[C@@]23CCN4C[C@@H]5O[C@@H]5[C@]5(CC[C@]12[C@](O)(C(=O)OC)[C@@H]5O)[C@H]43 [KOPSIMALINE B] | > 25 µg/mL | 13 µg/mL | –
COC(=O)N1c2c(ccc(OC)c2O)[C@@]23CCN4C[C@@H]5O[C@@H]5[C@]5(CC[C@]12[C@](O)(C(=O)OC)[C@@H]5O)[C@H]43 [KOPSIMALINE C] | > 25 µg/mL | 18.2 µg/mL | –
COC(=O)N1c2c(ccc3c2OCO3)[C@@]23CCN4C[C@@H]5O[C@@H]5[C@@]5([C@@H](O)[C@@](O)(C(=O)OC)[C@@]12C[C@@H]5O)[C@H]43 [KOPSIMALINE D] | 25 µg/mL (≈ 49.8 µM) | 9.2 µg/mL | –
COC(=O)N1c2c(OC)cccc2[C@@]23CCN4C[C@@H]5O[C@@H]5[C@]5(CC[C@]12[C@](O)(C(=O)OC)[C@@H]5O)[C@H]43 [KOPSIMALINE E] | > 25 µg/mL | 18 µg/mL | –
